Assay results as given in ChEMBL document CHEMBL1147381, “Two new cytotoxic chalcones from Calythropsis aurea” (J Nat Prod, 1993).
pIC50: −log10 of the molar value.

Assays:
[1] = tested on: L1210; assay: Cytotoxicity against mouse L1210 cells after 24 hrs; assay type: functional, cell-based; settings: L1210, 24 h
[2] = Cytotoxicity against human NCI60 cells after 2 days by XTT assay; assay type: functional; settings: NCI60, 48 h

SMILES: COc1ccc(C(=O)/C=C/c2ccc(O)c(O)c2)c(O)c1 [CALYTHROPSIN]
- pIC50 [1]: 5.15
- GI50 [2]: 0.66 µM
- TGI [2]: 19.7 µM
- CC50 ([2]; read-out: LC50 (the source's name)): > 50 µM
